In PMC7315563, “Bioactive fluorenes. Part III: 2,7-dichloro-9H-fluorene-based thiazolidinone and azetidinone analogues as anticancer and antimicrobial against multidrug resistant strains agents” (BMC Chemistry, 2020):
≈ marks a conversion by molar mass, not a printed value.

Assays:
[1] = system: A549 human lung cancer cells; test: cell viability assay (MTT); assay type: cell-based; conditions: 24 h; for viability at 1 µg/mL: read-out: Validity (%) for sample concentrations (µg/mL) 1; for viability at 10 µg/mL: read-out: Validity (%) for sample concentrations (µg/mL) 10; for viability at 31.25 µg/mL: read-out: Validity (%) for sample concentrations (µg/mL) 31.25; for viability at 62.5 µg/mL: 62.50 µg/mL, read-out: Validity (%) for sample concentrations (µg/mL) 62.50; for viability at 125 µg/mL: read-out: Validity (%) for sample concentrations (µg/mL) 125; for viability at 250 µg/mL: read-out: Validity (%) for sample concentrations (µg/mL) 250; for viability at 500 µg/mL: read-out: Validity (%) for sample concentrations (µg/mL) 500; for viability at 1000 µg/mL: read-out: Validity (%) for sample concentrations (µg/mL) 1000
[2] = system: Klebsiella pneumoniae (K. pneumoniae), multidrug resistant clinical isolate; test: agar well diffusion assay; assay type: cell-based; conditions: 24 h, 500 µg/mL of tested compound
How it was run: (§1)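 Multidrug-resistant clinical isolates swabbed on Mueller–Hinton agar at about 1–5 × 10^5 CFU/mL; 0.5 cm wells received 50 μL compound at 500 μg/mL in 1% DMSO. Incubation 24 h, 37 °C for bacteria and C. albicans, 25 °C for Aspergillus; inhibition zone diameter measured in mm.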

[3] = system: Pseudomonas aeruginosa (P. aeruginosa), multidrug resistant clinical isolate; test: agar well diffusion assay; assay type: cell-based; conditions: 24 h, 500 µg/mL of tested compound
How it was run: as §1

[4] = system: Staphylococcus aureus (S. aureus), multidrug resistant clinical isolate; test: agar well diffusion assay; assay type: cell-based; conditions: S. aureus, 500 µg/mL of tested compound, 24 h; for zone of inhibition at 500 µg/mL: Staphylococcus aureus
How it was run: as §1

[5] = system: MDA-MB-231 cells; test: FACS analysis, Annexin V and PI staining; assay type: cell-based, human; conditions: 24 h, 5g 500, 6c 105, 6d 170, 6k 130 µg/mL
Protocol: To uncover the mechanism of cell death for the compounds 5h, 6c, 6d and 6k on WI-38, A549, and MDA-MB-231 cells; Annexin v and propedium Iodide (PI) were used. In brief, WI-38, A549, MDA-MB-231 cells were cultured in 10 tissue culture dish with initial number 4 × 10^5 cell/Ml in RPMI growth media. […] After 24 h incubations, cells were washed and trypsinized and suspended in 50 μL 1X Annexin v binding buffer followed by adding 5 μL FITC Annexin V and incubated for 15 min at room temperature then 5 μL of PI were added to each tube. Finally, 400 μL of 1X Annexin v binding buffer were added to each tube and analyzed using Becton-Dickinson FACS Caliber.

[6] = system: A549 cells; test: FACS analysis, Annexin V and PI staining; assay type: cell-based, human; conditions: 24 h, 5g 500, 6c 85, 6d 117, 6k 200 µg/mL
Protocol: (§2) To uncover the mechanism of cell death for the compounds 5h, 6c, 6d and 6k on WI-38, A549, and MDA-MB-231 cells; Annexin v and propedium Iodide (PI) were used. In brief, WI-38, A549, MDA-MB-231 cells were cultured in 10 tissue culture dish with initial number 4 × 10^5 cell/Ml in RPMI growth media. In the following day, cells were treated with 6c, 6d and 6k as the following; (0.0, 500 μg/mL form each drug for WI-38 treatment, 0.0, 85, 117 and 200 μg/mL; respectively, for […] and 0.0, 250 from each for MDA-MB-231 cells treatment). After 24 h incubations, cells were washed and trypsinized and suspended in 50 μL 1X Annexin v binding buffer followed by adding 5 μL FITC Annexin V and incubated for 15 min at room temperature then 5 μL of PI were added to each tube. Finally, 400 μL of 1X Annexin v binding buffer were added to each tube and analyzed using Becton-Dickinson FACS Caliber.

[7] = system: WI-38 cells; test: FACS analysis, Annexin V and PI staining; assay type: cell-based, human; conditions: 24 h, 5g 1000 µg/mL, 6c, 6d, 6k 500 µg/mL
Protocol: as §2

Compound	viability at 1 µg/mL [1] [%]	viability at 10 µg/mL [1] [%]	viability at 31.25 µg/mL [1] [%]	viability at 62.5 µg/mL [1] [%]	viability at 125 µg/mL [1] [%]	viability at 250 µg/mL [1] [%]	viability at 500 µg/mL [1] [%]	viability at 1000 µg/mL [1] [%]	IC50 [1] [µg/mL]	zone of inhibition at 500 µg/mL [2] [mm]	zone of inhibition at 500 µg/mL [3] [mm]	zone of inhibition at 500 µg/mL [4] [mm]	apoptotic cell death (of total cell number) [5] [%]	necrotic cell death (of total cell number) [5] [%]	apoptotic cell death (of total cell number) [6] [%]	necrotic cell death (of total cell number) [6] [%]	apoptotic cell death (of total cell number) [7] [%]	necrotic cell death (of total cell number) [7] [%]	Mean zone of inhibition [4]
O=C1C(Cl)C(c2ccc(Cl)cc2)N1c1nc(-c2cc(Cl)cc3c2-c2ccc(Cl)cc2C3)cs1 (stereo not drawn) [6c, 3-Chloro-4-(4-chlorophenyl)-1-(4-(2,7-dichloro-9H-fluoren-4-yl)thiazol-2-yl)azetidin-2-one]	92.4	80.7	59.8	54.2	31.3	25.1	19.7	17.7	85 (≈ 160 µM)	6	10	7	80.32	2.15	27.32	2.1	1.22	14.5	
O=C1C(Cl)C(c2ccc(Br)cc2)N1c1nc(-c2cc(Cl)cc3c2-c2ccc(Cl)cc2C3)cs1 (stereo not drawn) [6d, 4-(4-Bromophenyl)-3-chloro-1-(4-(2,7-dichloro-9H-fluoren-4-yl)thiazol-2-yl)azetidin-2-one]	97.9	92.6	77.2	67.3	49	24.6	20.4	19.4	117 (≈ 203 µM)	6	10	3	55.355		36.3	2	1.34	14.1	low activity
O=C1C(Cl)C(c2cccs2)N1c1nc(-c2cc(Cl)cc3c2-c2ccc(Cl)cc2C3)cs1 (stereo not drawn) [6k, 3-Chloro-1-(4-(2,7-dichloro-9H-fluoren-4-yl)thiazol-2-yl)-4-(thiophen-2-yl)azetidin-2-one]	90.8	80.8	76	70.6	55.4	39.8	28.7	23	203 (≈ 403 µM)	3	11	7	67.25	4.56	32.67	1.71	0.61	9.93	
